Results taken from US10872410B2, “Methods and apparatus for assessing immune system activity and therapeutic efficacy” (Animantis, LLC, priority 2016, dated 2020).

Tested on: cell population sets
Assay: Directional displacement of cell population sets measured with the immune platform (FIG. 7)
Assay type: cell-based
Details: conditions unstimulated, LPS, TNF, effect of presence of the stimulus
Source text: FIG. 7 is a graphical representation of the directional displacement of cell population sets as measured using an embodiment of the immune platform described herein. […]

Row | Substance | directional displacement of cell population sets
1 | lipopolysaccharide [LPS] | greatly affected
2 | tumor necrosis factor [TNF] | minimally affected
